Here are results for six compounds from ChEMBL document CHEMBL5303573, “Mapping human microbiome drug metabolism by gut bacteria and their genes” (Nature, 2019).

Data set [1] in a line: The drug is tested on Blautia hansenii strain: DSM20583 for biotransformation. The drug concentrations were measured before and after a 12-h incubation by liquid-chromatography-coupled mass spectrometry (LC–MS). As to conditions: 2 µM.
The conditions of data set [2]: bacteroides fragilis, 12 h, 2 µM.
Description: The drug is tested on Bacteroides fragilis strain: 3397 (T10) for biotransformation. The drug concentrations were measured before and after a 12-h incubation by liquid-chromatography-coupled mass spectrometry (LC–MS)
A short description of data set [3]: The drug is tested on Bacteroides fragilis strain: ATCC43859 for biotransformation. The drug concentrations were measured before and after a 12-h incubation by liquid-chromatography-coupled mass spectrometry (LC–MS). As to conditions: 2 µM.
Data set [4] in a line: The drug is tested on Edwardsiella tarda strain: ATCC23685 for biotransformation. The drug concentrations were measured before and after a 12-h incubation by liquid-chromatography-coupled mass spectrometry (LC–MS). The settings on record: 2 µM.
The conditions of data set [5]: bacteroides thetaiotaomicron, 12 h, 2 µM.
Description: The drug is tested on Bacteroides thetaiotaomicron strain: 7330 for biotransformation. The drug concentrations were measured before and after a 12-h incubation by liquid-chromatography-coupled mass spectrometry (LC–MS)
For data set [6] the following is noted: victivallis vadensis, 12 h, 2 µM.
Description: The drug is tested on Victivallis vadensis strain: ATCC BAA-548 for biotransformation. The drug concentrations were measured before and after a 12-h incubation by liquid-chromatography-coupled mass spectrometry (LC–MS)
Data set [7] is described as follows: The drug is tested on Clostridium ramosum strain: DSM1402 for biotransformation. The drug concentrations were measured before and after a 12-h incubation by liquid-chromatography-coupled mass spectrometry (LC–MS). As to conditions: thomasclavelia ramosa, 2 µM.
Data set [8] can be described thus: The drug is tested on Bacteroides xylanisolvens strain: DSM18836 for biotransformation. The drug concentrations were measured before and after a 12-h incubation by liquid-chromatography-coupled mass spectrometry (LC–MS). The settings on record: 2 µM.
Data set [9] in a line: The drug is tested on Clostridium sporogenes strain: ATCC15579 for biotransformation. The drug concentrations were measured before and after a 12-h incubation by liquid-chromatography-coupled mass spectrometry (LC–MS). The settings on record: 2 µM.
A short description of data set [10]: The drug is tested on Clostridium symbiosum strain: ATCC14940 for biotransformation. The drug concentrations were measured before and after a 12-h incubation by liquid-chromatography-coupled mass spectrometry (LC–MS). The settings on record: 2 µM.
A short description of data set [11]: The drug is tested on Bacteroides vulgatus strain: ATCC8482 for biotransformation. The drug concentrations were measured before and after a 12-h incubation by liquid-chromatography-coupled mass spectrometry (LC–MS). As to conditions: phocaeicola vulgatus, 2 µM.
The nature of data set [12]: The drug is tested on Eubacterium hallii strain: DSM3353 for biotransformation. The drug concentrations were measured before and after a 12-h incubation by liquid-chromatography-coupled mass spectrometry (LC–MS). As to conditions: anaerobutyricum hallii, 2 µM.
Data set [13] is described as follows: The drug is tested on Bacteroides coprophilus strain: DSM18228 for biotransformation. The drug concentrations were measured before and after a 12-h incubation by liquid-chromatography-coupled mass spectrometry (LC–MS). The settings on record: 2 µM.
Data set [14] in a line: The drug is tested on Eubacterium rectale strain: ATCC33656 for biotransformation. The drug concentrations were measured before and after a 12-h incubation by liquid-chromatography-coupled mass spectrometry (LC–MS). The settings on record: agathobacter rectalis, 2 µM.
A short description of data set [15]: The drug is tested on Collinsella aerofaciens strain: ATCC25986 for biotransformation. The drug concentrations were measured before and after a 12-h incubation by liquid-chromatography-coupled mass spectrometry (LC–MS). The settings on record: 2 µM.
Data set [16] in a line: The drug is tested on Bacteroides fragilis strain: HMW610 for biotransformation. The drug concentrations were measured before and after a 12-h incubation by liquid-chromatography-coupled mass spectrometry (LC–MS). The settings on record: 2 µM.
The conditions of data set [17]: bacteroides fragilis, 12 h, 2 µM. This is another data set of the same source.
Description: The drug is tested on Bacteroides fragilis strain: DS-208 for biotransformation. The drug concentrations were measured before and after a 12-h incubation by liquid-chromatography-coupled mass spectrometry (LC–MS)
Data set [18] can be described thus: The drug is tested on Bacteroides cellulosilyticus strain: DSM14838 for biotransformation. The drug concentrations were measured before and after a 12-h incubation by liquid-chromatography-coupled mass spectrometry (LC–MS). The settings on record: 2 µM.
The nature of data set [19]: The drug is tested on Bifidobacterium breve strain: DSM20213 for biotransformation. The drug concentrations were measured before and after a 12-h incubation by liquid-chromatography-coupled mass spectrometry (LC–MS). The settings on record: 2 µM.
The conditions of data set [20]: bacteroides thetaiotaomicron, 12 h, 2 µM. This is another data set of the same source.
Description: The drug is tested on Bacteroides thetaiotaomicron strain: VPI-5482 for biotransformation. The drug concentrations were measured before and after a 12-h incubation by liquid-chromatography-coupled mass spectrometry (LC–MS)

As for `C[C@@H]1CC[C@H]2[C@@H](C)C(=O)O[C@@H]3O[C@@]4(C)CC[C@@H]1[C@]32OO4` [ARTEMISININ], the “Bacterial Biotransformation” value in [1], in [2], in data set [3], in [4], in data set [5] and in data set [6] was “Compound metabolized” each time. Further, the “Bacterial Biotransformation” value in data set [7], in data set [8], in [9], in data set [10], in data set [11] and in data set [12] was “Compound metabolized” throughout. Further, the “Bacterial Biotransformation” value in data set [13], in data set [14], in [15], in data set [16], in data set [17] and in data set [18] was “Compound metabolized” each time. The “Bacterial Biotransformation” value in data set [19] and in data set [20] was “Compound metabolized” each time.

Take `N[C@@H](Cc1ccc(N(CCCl)CCCl)cc1)C(=O)O`: the “Bacterial Biotransformation” value in data set [1], in data set [2], in [3], in data set [4], in [5] and in data set [6] was “Compound metabolized” throughout. The “Bacterial Biotransformation” value in data set [7], in data set [8], in data set [9], in data set [10], in [11] and in [12] was “Compound metabolized” each time. Also, the “Bacterial Biotransformation” value in data set [13], in data set [14], in data set [15], in data set [16], in [17] and in data set [18] was “Compound metabolized” each time. Moreover, the “Bacterial Biotransformation” value in data set [19] and in data set [20] was “Compound metabolized” in each case.

As to `COc1ccc2[nH]c([S+]([O-])Cc3ncc(C)c(OC)c3C)nc2c1` (stereo not given) [OMEPRAZOLE], the “Bacterial Biotransformation” value in data set [1], in [2], in data set [3], in data set [4], in [5] and in data set [6] was “Compound metabolized” throughout. The “Bacterial Biotransformation” value in data set [7], in data set [8], in data set [9], in data set [10], in [11] and in data set [12] was “Compound metabolized” in each case. For the same compound, the “Bacterial Biotransformation” value in data set [13], in data set [14], in data set [15], in data set [16], in data set [17] and in [18] was “Compound metabolized” in each case. Moreover, the “Bacterial Biotransformation” value in data set [19] and in [20] was “Compound metabolized” throughout.

As for `CC[C@H](C)C(=O)O[C@H]1CCC=C2C=C[C@H](C)[C@H](CC[C@@H]3C[C@@H](O)CC(=O)O3)[C@H]21` [MEVASTATIN], the “Bacterial Biotransformation” value in data set [1] is given as “Compound metabolized”; in [2], “Compound metabolized”; in data set [3], “Compound NOT metabolized”; in data set [4] it was “Compound metabolized”; in data set [5] it was “Compound metabolized”; in data set [6], “Compound metabolized”. Moreover, the “Bacterial Biotransformation” value in [7], in data set [8], in [9], in [10], in data set [11] and in data set [12] was “Compound metabolized” each time. The “Bacterial Biotransformation” value is given as “Compound metabolized” in [13]; “Compound metabolized” in data set [14]; “Compound metabolized” in data set [15]; “Compound NOT metabolized” in [16]; “Compound metabolized” in data set [17]; “Compound metabolized” in data set [18]. In addition, the “Bacterial Biotransformation” value in data set [19] and in data set [20] was “Compound metabolized” throughout.

Consider `CC(=O)Oc1ccc(C(c2ccc(OC(C)=O)cc2)c2ccccn2)cc1` [BISACODYL], for which the “Bacterial Biotransformation” value in data set [1], in data set [2], in data set [3], in data set [4], in [5] and in data set [6] was “Compound metabolized” throughout. Besides, the “Bacterial Biotransformation” value in data set [7], in [8], in [9], in data set [10], in [11] and in data set [12] was “Compound metabolized” each time. In addition, the “Bacterial Biotransformation” value in [13], in data set [14], in data set [15], in [16], in [17] and in data set [18] was “Compound metabolized” each time. Further, the “Bacterial Biotransformation” value in data set [19] and in data set [20] was “Compound metabolized” in each case.

On to `C#C[C@]1(O)CC[C@H]2[C@@H]3CCC4=Cc5oncc5C[C@]4(C)[C@H]3CC[C@@]21C` [DANAZOL], for which the “Bacterial Biotransformation” value in data set [1], in data set [2], in data set [3], in data set [4], in data set [5] and in data set [6] was “Compound metabolized” each time. Further, the “Bacterial Biotransformation” value in [7], in data set [8], in [9], in [10], in data set [11] and in [12] was “Compound metabolized” in each case. For the same compound, the “Bacterial Biotransformation” value is given as “Compound NOT metabolized” in data set [13]; “Compound metabolized” in data set [14]; “Compound metabolized” in data set [15]; “Compound metabolized” in data set [16]; “Compound metabolized” in data set [17]; “Compound metabolized” in data set [18]. Besides, the “Bacterial Biotransformation” value in [19] and in [20] was “Compound metabolized” each time.
